Ten molecules from patent US20240327385A1, “SUBSTITUTED PIPERIDINE COMPOUNDS AS RENIN INHIBITORS” (priority 2023, published 2024) can be followed below.

One may read the IC50 as the concentration that gives 50% inhibition.

Sequence of human recombinant renin (P00797 67-406): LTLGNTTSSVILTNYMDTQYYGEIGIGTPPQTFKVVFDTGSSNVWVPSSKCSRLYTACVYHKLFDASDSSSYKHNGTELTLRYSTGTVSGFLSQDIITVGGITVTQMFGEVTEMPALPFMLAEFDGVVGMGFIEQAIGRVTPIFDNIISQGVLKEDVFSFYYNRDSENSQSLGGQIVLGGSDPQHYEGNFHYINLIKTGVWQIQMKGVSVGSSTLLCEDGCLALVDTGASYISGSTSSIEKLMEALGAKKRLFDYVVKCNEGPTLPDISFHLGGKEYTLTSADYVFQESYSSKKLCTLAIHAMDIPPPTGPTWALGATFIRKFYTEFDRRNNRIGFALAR

The target in the experiment is human recombinant renin (Homo sapiens (Human), UniProt P00797). Description: human renin activity inhibition (SensoLyte 520 Renin Assay Kit Fluorimetric). The format is biochemical. Conditions: 30 min preincubation at 37° C., fluorescence at 530 nm after 15 min at 37° C., read-out: IC50 (nM), inhibitory effect on human renin activity. The protocol:
The exemplary compounds of the disclosure were tested for their inhibitory effects on human renin activity, using a commercially available renin assay kit (SensoLyte® 520 Renin Assay Kit Fluorimetric), following the manufacture's manual.
Briefly, human recombinant renin (from the kit) was incubated with the compound of the disclosure or buffer for 30 min at 37° C. before substrate addition. Fluorescence intensity was measured at 530 nm after an incubation of 15 min at 37° C. Data was analyzed by Prism and fitted into a sigmodal curve for IC50 calculation.
Take `CO[C@H]1C[C@H](Nc2cc(C3CC3)cnc2C(=O)N(CC(C)C)[C@@H]2CNCC(c3nnc(C4COC4)o3)C2)C1` (stereo in doubt) [Compound 34, (3S)—{N-(2-methylpropyl), N-{5-cyclopropyl-3-[3-(trans-methoxy)cyclobutyl]amino}pyridine-2-carbonyl}amino-(5R)-[5-(oxetan-3-yl)-1,3,4-oxadiazol-2-yl]-piperidine]: the IC50 is less than 10 nM.

In the case of `Cc1nnc(C2CNC[C@@H](N(CC(C)C)C(=O)c3ncc(C4CC4)cc3NC3COC3)C2)o1` (stereo in doubt) [Compound 37, (3S)—{N-(2-methylpropyl), N-[5-cyclopropyl-3-(oxetan-3-yl)amino]pyridine-2-carbonyl}amino-(5R)-(5-methyl-1,3,4-oxadiazol-2-yl)-piperidine], the IC50 was less than 20 nM.

Take `Cc1noc(C2CNC[C@@H](N(CC(C)C)C(=O)c3ncc(C4CC4)cc3NC3COC3)C2)n1` (stereo in doubt) [Compound 38, (3S)—{N-(2-methylpropyl), N-[5-cyclopropyl-3-(oxetan-3-yl)amino]pyridine-2-carbonyl}amino-(5R)-(3-methyl-1,2,4-oxadiazol-5-yl)-piperidine]: the 50% inhibitory concentration (IC50) was less than 50 nM.

As to `CO[C@H]1C[C@H](Nc2cc(C3CC3)cnc2C(=O)N(CC2CC2)[C@@H]2CNCC(c3nnco3)C2)C1` (stereo in doubt) [Compound 44, (3S)—{N-cyclopropylmethyl, N-{5-cyclopropyl-3-[3-(trans-methoxy)cyclobutyl]amino}pyridine-2-carbonyl}amino-(5R)-(1,3,4-oxadiazol-2-yl)-piperidine], the IC50 is less than 10 nM.

With `CO[C@H]1C[C@H](Nc2cc(C3CC3)cnc2C(=O)N(CC(C)C)[C@@H]2CNC[C@H](C(=O)N3CC(F)C3)C2)C1` [Compound 10, (3S)—{N-(2-methylpropyl), N-{5-cyclopropyl-3-[3-(trans-methoxy)cyclobutyl]amino}pyridine-2-carbonyl}amino-(5R)-(3-fluoroazetidine-N-carbonyl)-piperidine], the half-inhibitory concentration (IC50) was found to be 1.8 nM.

For the molecule `CO[C@H]1C[C@H](Nc2cc(C3CC3)cnc2C(=O)N(CC(C)C)C2CNCC(C(=O)N3CCC(F)(F)C3)C2)C1` (stereo partly drawn) [Compound 11, (3S)—{N-(2-methylpropyl), N-{5-cyclopropyl-3-[3-(trans-methoxy)cyclobutyl]amino}pyridine-2-carbonyl}amino-(5R)-(3,3-difluoropyrrolidine-N-carbonyl)-piperidine], the IC50 was 1.2 nM.

For `CO[C@H]1C[C@H](Nc2cc(C3CC3)cnc2C(=O)N(CC(C)C)C2CNCC(C(=O)N3CCC(F)(F)CC3)C2)C1` (stereo partly drawn) [Compound 12, (3S)—{N-(2-methylpropyl), N-{5-cyclopropyl-3-[3-(trans-methoxy)cyclobutyl]amino}pyridine-2-carbonyl}amino-(5R)-(4,4-difluoropiperidine-N-carbonyl)-piperidine], the half-inhibitory concentration (IC50) turned out to be 1.6 nM.

For `CO[C@H]1C[C@H](Nc2cc(C3CC3)cnc2C(=O)N(CC(C)C)C2CNCC(C(=O)N3CCC(OC(F)(F)F)CC3)C2)C1` (stereo partly drawn) [Compound 13, (3S)—{N-(2-methylpropyl), N-{5-cyclopropyl-3-[3-(trans-methoxy)cyclobutyl]amino}pyridine-2-carbonyl}amino-(5R)-(4-trifluoromethoxypiperidine-N-carbonyl)-piperidine], the IC50 came to 3.8 nM.

Regarding `CO[C@H]1C[C@H](Nc2cc(C3CC3)cnc2C(=O)N(CC(C)C)C2CNCC(C(=O)N3CCOC[C@H]3C)C2)C1` (stereo partly drawn) [Compound 14, (3S)—{N-(2-methylpropyl), N-{5-cyclopropyl-3-[3-(trans-methoxy)cyclobutyl]amino}pyridine-2-carbonyl}amino-(5R)-[(3R)-methylmorpholine-N-carbonyl]-piperidine], the IC50 was 1.2 nM.

For the molecule `CO[C@H]1C[C@H](Nc2cc(C3CC3)cnc2C(=O)N(CC(C)C)C2CNCC(C(=O)N3CCOC[C@@H]3C)C2)C1` (stereo partly drawn) [Compound 15, (3S)—{N-(2-methylpropyl), N-{5-cyclopropyl-3-[3-(trans-methoxy)cyclobutyl]amino}pyridine-2-carbonyl}amino-(5R)-[(3S)-methylmorpholine-N-carbonyl]-piperidine], the IC50 was 1 nM.
